From publication PMC11229374, “Unlocking the potential of protein-derived peptides to target G-quadruplex DNA: from recognition to anticancer activity” (Nucleic Acids Research, 2024)
Where “and” joins values, the source holds several entries; their conditions need not be identical. Equal entries are not always repeated.

Experiments:
BCL-2 G4 = settings: CD melting at 264 nm, 2 μM DNA, 1 mol equiv peptide, 5 mM KH2PO4/K2HPO4 pH 7.0, 20 mM KCl, 1°C/min; average of three; T1/2 DNA alone 60.7°C
Method: (§1) CD experiments were carried out using a Jasco J-815 spectropolarimeter equipped with a PTC-423S/15 Peltier temperature controller. G4-forming and duplex-forming DNA molecules were prepared at a concentration of 2 μM in 5 mM KH2PO4/K2HPO4 buffer (pH 7.0) containing 20 mM KCl or LiCl. CD spectra of DNA/peptide mixtures were obtained by adding 1 mol equiv of peptide (stock solutions of 10 mM in H2O) with respect to the oligonucleotide. CD spectra of DNA molecules in the absence and presence of peptide were recorded at 20 and 100°C in the wavelength range of 220−320 nm and averaged over three scans, utilizing a scan rate of 100 nm/min with a 0.5 s response time and 1 nm bandwidth. The buffer baseline was subtracted from each spectrum. Additionally, CD spectra of Myb1^397–415 in the absence and presence of G4s were recorded at 20°C in the 200−250 nm wavelength range using a scan rate of 20 nm/min, with a 4 s response time and 2 nm bandwidth. The G4 spectra were subtracted from the corresponding G4/peptide mixtures to obtain information on the peptide spectrum in the presence of G4. The percentage of secondary structures adopted by the peptide in the absence and presence of the G4s was estimated using the BeStSel software ([26]). CD melting experiments were performed in the absence and presence of peptides (1 or 2 mol equiv) in the 20−100°C temperature range at 1°C/min heating rate, monitoring changes of the CD signal at wavelengths corresponding to the maximum CD intensity for the G4s (264 nm for c-KIT1, c-KIT2, c-MYC, HER2, HT-FANA, BCL-2, and VEGFR-17T; 290 nm for HRAS1, LWDLN1, HT1, and HT2) and at 252 nm for ds12 duplex. The apparent melting temperatures (T1/2) were determined using non-linear curve fitting with OriginLab© 2021 software (OriginLab Corp., MA, USA). ΔT1/2 values were calculated as the difference in the T1/2 values of the DNA structures in the presence and absence of a peptide.

c-MYC G4 = settings: CD melting at 264 nm, 2 μM DNA, 1 mol equiv peptide, 5 mM KH2PO4/K2HPO4 pH 7.0, 20 mM LiCl, 1°C/min; average of three; T1/2 DNA alone 68.2°C
Method: as §1

HT-FANA G4 = settings: CD melting at 264 nm, 2 μM DNA, 1 mol equiv peptide, 5 mM KH2PO4/K2HPO4 pH 7.0, 20 mM KCl, 1°C/min; average of three; T1/2 DNA alone 62.9°C
Method: as §1

VEGFR-17T G4 = settings: CD melting at 264 nm, 2 μM DNA, 1 mol equiv peptide, 5 mM KH2PO4/K2HPO4 pH 7.0, 20 mM KCl, 1°C/min; average of three; T1/2 DNA alone 53.7°C
Method: as §1

ds12 duplex = settings: CD melting at 252 nm, 2 μM DNA, 1 mol equiv peptide, 5 mM KH2PO4/K2HPO4 pH 7.0, 20 mM KCl, 1°C/min; average of three; T1/2 DNA alone 62.7°C
Method: as §1

HER2 G4 [1] = settings: CD melting at 264 nm, 2 μM DNA, 1 mol equiv peptide, 5 mM KH2PO4/K2HPO4 pH 7.0, 20 mM KCl, 1°C/min; average of three; T1/2 DNA alone 62.4°C
Method: as §1

c-KIT1 G4 = settings: CD melting at 264 nm, 2 μM DNA, 1 mol equiv peptide, 5 mM KH2PO4/K2HPO4 pH 7.0, 20 mM KCl, 1°C/min; average of three; T1/2 DNA alone 53.8°C
Method: as §1

c-KIT2 G4 = assay: Isothermal titration calorimetry (ITC) with c-KIT2 G4; format: binding, human; settings: ITC at 25°C, triplicate
Method: ITC experiments were conducted at 25°C using a nano-ITC Low Volume calorimeter (TA instruments, Lindon, UT, USA). DNA and peptide solutions were prepared using the same batch of buffer (5 mM KH2PO4/K2HPO4 buffer containing 20 mM KCl, pH 7.0) to prevent differences in buffer composition and pH. Each titration consisted of 25 injections of a 2 μl peptide solution (280–400 μM) sequentially injected using a computer-controlled 50 μl syringe, into the calorimetric vessel (190 μl) containing the oligonucleotide (16–20 μM). A spacing of 300 s between each injection was applied to allow the system to reach the equilibrium. The heat generated by peptide dilution was assessed in a control experiment by injecting the peptide solution into the buffer (Supplementary Figure S30). All measurements were performed in triplicate. Subsequently, the interaction heat for each injection was calculated considering the correction for the heat of peptide dilution. The corrected heat values were plotted as a function of the molar ratio to provide binding isotherms. The isotherms were fitted with a multiple-sites binding model using the NanoAnalyze software (TA instruments) provided with the instrument. This analysis provided the equilibrium binding constant (Ka), binding enthalpy (ΔH°), and stoichiometry of interaction (n). The equilibrium dissociation constant (Kd), Gibbs free-energy change and entropy change were determined using the following relationships: Kd = 1/Ka, ΔG° = -RT ln Ka (R = 8.314 J mol^−1 K^−1, T = 298.15 K), and TΔS° = ΔH° – ΔG°.

HER2 G4 [2] = assay: Microscale thermophoresis (MST) binding to HER2 G4; parameters: species or system human; settings: 25°C, 20 nM FITC-labelled peptide, DNA serial dilution, 5 mM KH2PO4/K2HPO4 pH 7.0, 20 mM KCl, 0.1% Tween, 5% DMSO
Method: MST experiments were conducted using a Monolith NT.115 instrument (NanoTemper Technologies, Munich, Germany) at 25°C with medium MST power settings. […] DNA samples were also diluted using the same buffer supplemented with 0.1% Tween. During MST experiments, the concentration of the labelled peptide was kept constant at 20 nM, while a serial dilution of the investigated DNA molecules (ranging from 10 or 20 μM) was prepared and mixed with the peptide solution in a 1:1 volume ratio. All the samples, with a final concentration of 5% DMSO, were loaded into standard capillaries (NanoTemper Technologies) for MST measurements. Data analysis was carried out using the MO.Affinity Analysis (v2.3) software provided with the instrument.

Ac-NHTGNSIRHRFRVYLSKRL-NH2 [Myb^397–415]
ΔT1/2 of BCL-2 G4 (BCL-2 G4): 8.0 (±0.2) °C | ΔT1/2 of c-MYC G4 (c-MYC G4): 5.0 (±0.2) °C | ΔT1/2 of HT-FANA G4 (HT-FANA G4): 8.3 °C and 8.3 (±0.2) °C | ΔT1/2 of VEGFR-17T G4 (VEGFR-17T G4): 0.2 (±0.2) °C | ΔT1/2 of ds12 duplex (ds12 duplex): 1.0 °C and 1.0 (±0.2) °C | ΔT1/2 of HER2 G4 (HER2 G4 [1]): 7.0 (±0.2) °C | ΔT1/2 of c-KIT1 G4 (c-KIT1 G4): 6.2 (±0.2) °C | Ka (c-KIT2 G4; c-KIT2 G4 16–20 μM, peptide 280–400 μM, 5 mM KH2PO4/K2HPO4, 20 mM KCl, pH 7.0): 5.0 × 10^6 M^−1 and 5.0 (±0.3) ×10^6 M^−1 | Kd (c-KIT2 G4; c-KIT2 G4, Kd = 1/Ka): 200 nM | Kd (HER2 G4 [2]): 130 nM
